Test results published in PubChem BioAssay AID2060353 (Molecular Pharmacology Branch, DTP, NCI, 2025).

System: 521955-158-R2-J5-PDC spheroids with stroma, growth inhibition
Assay: Anticancer human tumor 521955-158-R2-J5-PDC patient-derived pancreatic carcinoma cell line growth inhibition [TAK]
Conditions: for IC50: curve of first compound; for viability, T/C: stronger effect = lower value
Excerpt: Combinatorial screen of targeted agents with TAK-243 and ipatasertib in multi-cell type tumor spheroids
A high-throughput screen of multi-cell type tumor spheroids was designed to identify active combinations of targeted small molecules and TAK-243 or ipatasertib. Complex spheroids include a stromal component modeled by human endothelial cells (HUVEC) and fibroblasts modeled by human mesenchymal stem cells (MSCs). The concentration ranges selected for each drug and investigational agent were based upon clinically achievable concentrations if the clinical Cmax of the agent was known.
Compounds. The drugs and investigational agents: TAK-243 (785004), ipatasertib (767898), everolimus (733504), selumetinib (741078), bortezomib (756655), trametinib (758246), ixazomib (758254), vemurafenib (761431), dabrafenib (764134), sapanisertib (764658), alpelisib (765974), and copanlisib (816437), were obtained from the National Cancer Institute (NCI) Developmental Therapeutics Program Chemical Repository. The FDA-approved anticancer drug set is available from the NCI Developmental Therapeutics Program. […] The stock solutions were prepared in dimethyl sulfoxide (DMSO, Sigma-Aldrich, St. Louis, MO, cat. D2650) at 800-fold the tested concentration and stored at -70 degrees C prior to their use. All drugs and investigational agents were tested over a range starting from a high concentration at or near the clinical Cmax and decreasing in half-log increments. If the clinical Cmax for an agent had not been determined, the highest concentration tested was 10 microM.
NCI60 Cell Culture. NCI60 cell lines were obtained from the NCI Developmental Therapeutics Program Tumor Repository. For each lot of cells, the Repository performed Applied Biosystems AmpFLSTR Identifiler testing with PCR amplification to confirm consistency with the published Identifier STR profile for each cell line. Cells were kept in continuous culture for no more than 20 passages. The optimal seeding densities for each of the cell lines at each time point assessed were determined prior to performing the concentration response studies. Briefly, the NCI60 human tumor lines were grown as monolayers in RPMI 1640 medium supplemented with 10% FBS and 2 mmol/L L-glutamine.
An additional 2 lines were from the NCI60 cell line panel including melanomas, MALME-3M and SK-MEL-2. Pooled donor human umbilical vein endothelial cells (HUVEC, Lonza, cat. CC-2519) and human mesenchymal stem cells (hMSC, Lonza, cat. PT-2501) were purchased from Lonza (Walkersville, MD).
PDMR cell lines were grown in complete medium (DC medium): Dulbecco's modified Eagle's medium (DMEM)/F12 supplemented with 5% fetal bovine serum (FBS), 2 mM L-glutamine, 100 U/mL penicillin and 100 µg/ml streptomycin, 0.4 µg/ml hydrocortisone, 10 ng/ml epidermal growth factor (EGF) recombinant human protein, 24 µg/mL adenine, and 0.1 mg/mL primocin. During culture from frozen stock vials, PDMR cells were cultured in the same medium containing 10 µM Y-27632 (see Table 3). The PDCs were cultured in complete DMEM/F12 media without 10 microM Y-27632 dihydrochloride for at least two passages prior to the screen. The pooled donor HUVEC and hMSC were cultured in endothelial cell growth medium 2 (PromoCell, Heidelberg, Germany, cat. C-22011) and mesenchymal stem cell growth medium 2 (PromoCell, cat. C-28009), respectively. For all experiments, HUVEC and hMSC were used at passages </=5.
For the pre-screen, cell seeding densities were determined from a titration spanning the range from 5,000 to 313 cells per well. The mct-spheroids including 60% malignant cells, 25% HUVEC and 15% MSC dispensed as a mixture into U-bottom Ultra-Low Attachment 384-well plates (Corning, NY)
High-throughput Drug Combination Screening.
Prior to their inoculation into 384-well plates, malignant cells, HUVEC, and hMSC were removed from T flasks using TrypLE express (Thermo Fisher Scientific, cat. 12605036) and harvested by centrifugation for 5 min at 233 x g. […]
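Also: spheroids exposed to drugs for seven days before readout.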
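For viability, T/C in this document: 100% = DMSO vehicle control viability.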

How did the IC50 (second compound 0.3 µM) turn out when CC(C)n1nc(-c2ccc3oc(N)nc3c2)c2c(N)ncnc21 + CC(C)NCC(C(=O)N1CCN(c2ncnc3c2C(C)CC3O)CC1)c1ccc(Cl)cc1 was run?
Its IC50 is 32 nM.

What about the IC50 (second compound 0.949 µM) of the same molecule?
The IC50 was 34.9 nM.

What about the IC50 (second compound 3 µM) of the same molecule?
The IC50 was 17.7 nM.

What about the IC50 (second compound 9.49 µM) of the same molecule?
The IC50 was 8.6 nM.

And the IC50 (second compound 30 µM)?
Its IC50 is 0.516 nM.

And the viability, T/C (second compound 0.3 µM, first compound 0.000316 µM)?
The viability, T/C was 106%.

And the viability, T/C (second compound 0.3 µM, first compound 0.001 µM)?
The viability, T/C was 96.9%.

What about the viability, T/C (second compound 0.3 µM, first compound 0.00316 µM) of the same molecule?
Its viability, T/C is 85%.

And the viability, T/C (second compound 0.3 µM, first compound 0.01 µM)?
The viability, T/C was 60.4%.

And the viability, T/C (second compound 0.3 µM, first compound 0.0316 µM)?
Its viability, T/C is 54.8%.

What about the viability, T/C (second compound 0.3 µM, first compound 0.1 µM) of the same molecule?
Its viability, T/C is 36.5%.

What about the viability, T/C (second compound 0.949 µM, first compound 0.000316 µM) of the same molecule?
Its viability, T/C is 78.3%.

And the viability, T/C (second compound 0.949 µM, first compound 0.001 µM)?
Its viability, T/C is 69.3%.

What about the viability, T/C (second compound 0.949 µM, first compound 0.00316 µM) of the same molecule?
The viability, T/C was 65.7%.

What about the viability, T/C (second compound 0.949 µM, first compound 0.01 µM) of the same molecule?
Its viability, T/C is 66.9%.

What about the viability, T/C (second compound 0.949 µM, first compound 0.0316 µM) of the same molecule?
Its viability, T/C is 49.6%.

What about the viability, T/C (second compound 0.949 µM, first compound 0.1 µM) of the same molecule?
The viability, T/C was 36%.

What about the viability, T/C (second compound 3 µM, first compound 0.000316 µM) of the same molecule?
The viability, T/C was 83.5%.

What about the viability, T/C (second compound 3 µM, first compound 0.001 µM) of the same molecule?
The viability, T/C was 77.8%.

What about the viability, T/C (second compound 3 µM, first compound 0.00316 µM) of the same molecule?
The viability, T/C was 84.8%.

And the viability, T/C (second compound 3 µM, first compound 0.01 µM)?
The viability, T/C was 62.3%.

And the viability, T/C (second compound 3 µM, first compound 0.0316 µM)?
The viability, T/C was 37.6%.

What about the viability, T/C (second compound 3 µM, first compound 0.1 µM) of the same molecule?
Its viability, T/C is 28.2%.

What about the viability, T/C (second compound 9.49 µM, first compound 0.000316 µM) of the same molecule?
The viability, T/C was 110%.

What about the viability, T/C (second compound 9.49 µM, first compound 0.001 µM) of the same molecule?
The viability, T/C was 102%.

And the viability, T/C (second compound 9.49 µM, first compound 0.00316 µM)?
The viability, T/C was 79.2%.

And the viability, T/C (second compound 9.49 µM, first compound 0.01 µM)?
The viability, T/C was 44.2%.

What about the viability, T/C (second compound 9.49 µM, first compound 0.0316 µM) of the same molecule?
The viability, T/C was 29.1%.

What about the viability, T/C (second compound 9.49 µM, first compound 0.1 µM) of the same molecule?
The viability, T/C was 19.3%.

What about the viability, T/C (second compound 30 µM, first compound 0.000316 µM) of the same molecule?
Its viability, T/C is 52.1%.

What about the viability, T/C (second compound 30 µM, first compound 0.001 µM) of the same molecule?
The viability, T/C was 47.1%.

And the viability, T/C (second compound 30 µM, first compound 0.00316 µM)?
The viability, T/C was 37.5%.

What about the viability, T/C (second compound 30 µM, first compound 0.01 µM) of the same molecule?
Its viability, T/C is 17.1%.

What about the viability, T/C (second compound 30 µM, first compound 0.0316 µM) of the same molecule?
Its viability, T/C is 10.4%.

And the viability, T/C (second compound 30 µM, first compound 0.1 µM)?
Its viability, T/C is 9.55%.

What does the source list for CCCS(=O)(=O)Nc1ccc(F)c(C(=O)c2c[nH]c3ncc(-c4ccc(Cl)cc4)cc23)c1F + CC(C)NCC(C(=O)N1CCN(c2ncnc3c2C(C)CC3O)CC1)c1ccc(Cl)cc1?
IC50 (second compound 0.3 µM): > 100000 nM; IC50 (second compound 0.949 µM): > 100000 nM; IC50 (second compound 3 µM): 15900 nM; IC50 (second compound 9.49 µM): 6340 nM; IC50 (second compound 30 µM): 1140 nM; viability, T/C (second compound 0.3 µM, first compound 0.316 µM): 107%; viability, T/C (second compound 0.3 µM, first compound 1 µM): 134%; viability, T/C (second compound 0.3 µM, first compound 3.16 µM): 108%; viability, T/C (second compound 0.3 µM, first compound 10 µM): 165%; viability, T/C (second compound 0.3 µM, first compound 31.6 µM): 18.9%; viability, T/C (second compound 0.3 µM, first compound 100 µM): 122%; viability, T/C (second compound 0.949 µM, first compound 0.316 µM): 108%; viability, T/C (second compound 0.949 µM, first compound 1 µM): 123%; viability, T/C (second compound 0.949 µM, first compound 3.16 µM): 107%; viability, T/C (second compound 0.949 µM, first compound 10 µM): 103%; viability, T/C (second compound 0.949 µM, first compound 31.6 µM): 22.2%; viability, T/C (second compound 0.949 µM, first compound 100 µM): 111%; viability, T/C (second compound 3 µM, first compound 0.316 µM): 100%; viability, T/C (second compound 3 µM, first compound 1 µM): 99.4%; viability, T/C (second compound 3 µM, first compound 3.16 µM): 99.2%; viability, T/C (second compound 3 µM, first compound 10 µM): 70.1%; viability, T/C (second compound 3 µM, first compound 31.6 µM): 19.9%; viability, T/C (second compound 3 µM, first compound 100 µM): 12.1%; viability, T/C (second compound 9.49 µM, first compound 0.316 µM): 84.8%; viability, T/C (second compound 9.49 µM, first compound 1 µM): 89.8%; viability, T/C (second compound 9.49 µM, first compound 3.16 µM): 69.9%; viability, T/C (second compound 9.49 µM, first compound 10 µM): 36.1%; viability, T/C (second compound 9.49 µM, first compound 31.6 µM): 14.2%; viability, T/C (second compound 9.49 µM, first compound 100 µM): 6.73%; viability, T/C (second compound 30 µM, first compound 0.316 µM): 51.7%; viability, T/C (second compound 30 µM, first compound 1 µM): 50.9%; viability, T/C (second compound 30 µM, first compound 3.16 µM): 40.4%; viability, T/C (second compound 30 µM, first compound 10 µM): 5.79%; viability, T/C (second compound 30 µM, first compound 31.6 µM): 4.82%; viability, T/C (second compound 30 µM, first compound 100 µM): 4.7%
